In patent publication US20040053872A1, “New sequences” (priority 2000, published 2004):

How the values were obtained:
[1] = system: Mut1 (RNase H inactive mutant of HIV-1 RT); assay: Gel mobility shifts in native polyacrylamide gel electrophoresis (PAGE); assay type: binding
From the text: (§1) In the following experiment, the terms “34-mer” and “35-mer” refer to SEQ ID NO:3 (produced in example A1 above) and SEQ ID NO:4 (produced in example A2 above), respectively. […] Natural RT molecules have an RNase H activity which normally cleaves RNA molecules. […] This mutant is produced according to the method given in Schatz, O., Cromme, F. V., Grüninger-Leitch, F. and Le Grice, S. F. J., Febs Letter. Vol.257, No.2 p.311-314. This RT-mutant is further on referred to as Mut1. The following experiments are carried out:
2. Gel mobility shifts in polyacrylamide gel electrophoresis (PAGE) experiments.
a) Native 20% PAGE gel is run at 4-5° C. Samples are incubated at 4° C. in 50 mM hepes buffer and 5 mM magnesium chloride and varying salt concentrations as indicated below.
Samples are incubated for 90 min at 4° C. prior to a further 10 min incubation at 4° C. with ammonium sulphate and/or KCl. Samples applied to lanes 4 and 5 have twice the amount of 34-mer used for the other samples.
b) Native 20% PAGE gel run at 4-5° C. Samples are incubated at 4° C. in 50 mM hepes buffer and 5 mM magnesium chloride, with varying concentrations of ammonium sulphate.
Native 20% PAGE gel is run at 4-5° C. Samples are incubated at 4° C. in 50 mM hepes buffer, 15 mM manganese sulphate, 1 mM EDTA and 0.25 mM EGTA.
Samples are incubated 10 min at room temperature prior to a 60 min incubation at 4° C. One μl of sample solution is applied per lane. Electrophoresis is conducted with up to 400 volts while cooling to approximately 4° C. After 0.209 kWh the gel is silver stained.

[2] = system: Mut1 (RNase H inactive mutant of HIV-1 RT); assay: Test of binding by gel filtration on a SMART system; conditions: starting amounts Mut1 210 pmol, oligonucleotide 630 pmol; Mut1 only 0.50 / 0.63
From the text: as §1
1. Test of binding by means of separation of the complex Mut1−34-mer (from Example A1) from excess 34-mer using gel filtration on a SMART system.
1. Mut1 is incubated with excess 34-mer for about 90 min at 4° C., buffer Tris-HCl, pH=8.0, containing 5 mM MgCl2. The mixture is then applied to a gel filtration column of a SMART™-type system, which allows simultaneous registration at two different wavelengths.
Starting amounts: Mut=210 pmol; 34-mer=630 pmol. The left peak is the complex Mut1−34-mer. The absorption at 260 nm (the upper curve) is now higher than the absorption at 280 nm (the lower curve): A260/A280=1.13. The right peak is the excess 34-mer, which has the characteristic absorption ratio for nucleic acids: A260/A280=2.01. […]

[3] = system: panel of recombinant HIV 1 subtype B RTs; assay: RT binding inhibition (BIC) assay, whole RT panel; conditions: all conditions studied
Protocol: (iii) Protocol for RT binding inhibition (BIC) assay: The study was performed in a modified DNA polymerase assay. The inhibitors were serially diluted in five steps, enzyme dilution was added and the enzyme/inhibitor mixtures were incubated for 30 minutes at 33° C. Aliquots of the enzyme/inhibitor mixture were transferred to each well of a microtiter plate containing either immobilised primer, or primer/template. The enzyme was allowed to bind to the immobilised polymer for 90 min at 33° C. The amount of RT used was standardised to an activity corresponding to 40-60 pg (3.3-5.0×10^−16 mol) reference HIV-1 RT per well. The plates were then washed to remove unbound enzyme whereupon the amount of bound enzyme was determined by addition of the appropriate reaction solution for polymerisation (i e a reaction solution devoid of primer for studies of primer binding and a reaction solution devoid of both primer and template for studies of binding to primed template). The polymerase reaction was allowed to proceed for 3 hours at 33° C., whereupon the reaction was terminated by a wash of the plate.
The capacity of the indicated substances to inhibit the binding to primer or to primed DNA template of a panel of recombinant HIV 1 subtype B RTs was studied according to “Protocol for RT binding inhibition (BIC) assay” (protocol (iii) above).

| Compound | Gel mobility of Mut1 in complex with oligonucleotide ([1]; native 20% PAGE at 4-5° C.) | Complex with Mut1 at high salt concentrations ([1]; native 20% PAGE, ammonium sulphate up to […]) | A260/A280 of the complex peak Mut1-oligonucleotide [2] | Capacity to prevent RT binding to primer or primed template [3] |
| --- | --- | --- | --- | --- |
| 34-mer: phosphorothioate RNA 34-mer corresponding to bases 10-43 in tRNALys3 with unmodified A, G, C and U nucleotides (example A1) | migrates faster than Mut1 alone | remains in complex with Mut1 | 1.13 |  |
| Cc1ccnc2c1NC(=O)c1cccnc1N2C1CC1 [Nevirapine] |  |  |  | unable to prevent RT binding |
